For 19 compounds, Ki results are on record in patent publication US5386011A, “Hexapeptide anaphylatoxin-receptor ligands” (priority 1990, dated 1995).

Counter-ions that a name gives are not always drawn. Where a SMILES comes first, the peptide text is derived from it. [ ]: non-standard residue; d: D form. The star is where a group is joined. Phe(4-I) = N[C@@H](Cc1ccc(I)cc1)C(=O)O; d1Nal = N[C@H](Cc1cccc2ccccc12)C(=O)O; NMeF = CN[C@@H](Cc1ccccc1)C(=O)O; Cha = N[C@@H](CC1CCCCC1)C(=O)O; dCha = N[C@H](CC1CCCCC1)C(=O)O; dPhg = N[C@@H](C(=O)O)c1ccccc1; NMe(benzyl) = CN(Cc1ccccc1)*; dNle = CCCC[C@@H](N)C(=O)O; Nle = CCCC[C@H](N)C(=O)O; Tfa = O=C(C(F)(F)F)*

In the assay the target is T1, C5a Receptor (Homo sapiens, UniProt P21730).
T1 construct: 2.5-25 ug/mL of purified PMNL membrane fragments; endogenous in cells; host or cells: PMNL (polymorphonuclear leukocytes), purified membrane fragments
T1 sequence (P21730 1-350): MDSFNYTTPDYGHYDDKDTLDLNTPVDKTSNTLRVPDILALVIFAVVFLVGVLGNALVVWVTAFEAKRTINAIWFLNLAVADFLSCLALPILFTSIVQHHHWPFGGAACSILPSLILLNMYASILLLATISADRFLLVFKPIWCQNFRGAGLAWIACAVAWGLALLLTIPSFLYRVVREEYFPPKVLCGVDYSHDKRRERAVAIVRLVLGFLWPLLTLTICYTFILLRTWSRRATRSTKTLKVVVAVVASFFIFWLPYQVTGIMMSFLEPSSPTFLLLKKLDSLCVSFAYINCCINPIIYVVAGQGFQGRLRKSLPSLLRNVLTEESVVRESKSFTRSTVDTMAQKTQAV
The assay can be described thus: Anaphylatoxin receptor binding Ki determination: inhibition of 125I-C5a binding to purified PMNL membrane fragments. The conditions noted are these: 0.03-1 nM 125I-C5a, 2.5-25 ug/mL purified PMNL membrane fragments, filtration; read-out: Ki (In vitro C5a Receptor Binding Potency). As to the method: Specific inhibition of C5a binding activity of representative compounds of the present invention was measured using 0.03-1 nM ^125 I-C5a with 2.5-25 ug/mL of purified PMNL membrane fragments (Borregaard, N.; Heiple, J. M.; Simons, E. R.; and Clark, R. A. J. Cell. Biol. 1983, 97, 52-61.). Free and membrane-bound ligand were separated by filtration.
Broadly, the Ki is the dissociation constant of the complex between target and ligand, obtained from inhibition or displacement. As to `CN[C@@H](Cc1ccccc1)C(=O)N[C@@H](CCCCN)C(=O)N1CCC[C@H]1C(=O)N[C@H](CC1CCCCC1)C(=O)N[C@@H](Cc1ccccc1)C(=O)N[C@@H](C(=O)O)c1ccccc1` [Example 367, (N-Methyl)Phenylalanyl-Lysyl-Prolyl-{(2R)-2-Amino-3-cyclehexylpropanoyl}-Phenylalanyl-{(R)-Phenylglycinyl}-OH] (H-[NMeF]KP[dCha]F[dPhg]-OH), the Ki was found to be 1900 nM. The result for `CC(C)C[C@@H](NC(=O)[C@H](CC1CCCCC1)NC(=O)[C@H](CC1CCCCC1)NC(=O)[C@H](C)NC(=O)[C@H](CCCCN)NC(=O)[C@@H](N)Cc1ccccc1)C(=O)N[C@@H](CCCNC(=N)N)C(=O)O` [Example 195, H-Phenylalanyl-Lysyl-Alanyl-{(2S)-2-Amino-3-cyclohexylpropanoyl}-{(2S)-2-Amino-3-cyclohexylpropanoyl}-DLeucyl-Arginyl-OH] (H-FKA[Cha][Cha][dL]R-OH) reads 1500 nM. The result for `CN[C@@H](Cc1ccccc1)C(=O)N[C@@H](CCCCN)C(=O)N1CCC[C@H]1C(=O)N[C@H](Cc1cccc2ccccc12)C(=O)N[C@@H](Cc1ccccc1)C(=O)N[C@H](CCCNC(=N)N)C(=O)O` [Example 224, (N-Methyl)Phenylalanyl-Lysyl-Prolyl-D(1-Naphthylalanyl)-Phenylalanyl-DArginyl-OH] (H-[NMeF]KP[d1Nal]F[dR]-OH) reads 12 nM; that for `CN[C@@H](Cc1ccccc1)C(=O)N[C@@H](CCCCN)C(=O)N1CCC[C@H]1C(=O)N[C@H](CC1CCCCC1)C(=O)N[C@@H](CC1CCCCC1)C(=O)N[C@H](CCCNC(=N)N)C(=O)N(C)Cc1ccccc1` [Example 97, (N-Methyl)Phenylalanyl-Lysyl-Prolyl-{(2R) -2-Amino-3-cyclohexylpropanoyl}-{(2S)-2-Amino-3-cyclohexylpropanoyl}-DArginyl-N-(Methyl)(Benzyl)] (H-[NMeF]KP[dCha][Cha][dR]-{NMe(benzyl)}), 520 nM; that for `CC(C)[C@H](NC(=O)[C@H](CCCCN)NC(=O)[C@@H](N)Cc1ccccc1)C(=O)N[C@H](CC1CCCCC1)C(=O)N[C@@H](CC1CCCCC1)C(=O)N[C@H](CCCNC(=N)N)C(=O)O` [Example 360, H-Phenylalanyl-Lysyl-Valyl-{(2R)-2-Amino-3-cyclohexylpropanoyl}-{(2S)-2-Amino-3-cyclohexylpropanoyl}-DArginyl-OH] (H-FKV[dCha][Cha][dR]-OH), 53 nM. As for `CCCC[C@@H](NC(=O)[C@H](CC(C)C)NC(=O)[C@H](CC1CCCCC1)NC(=O)[C@H](CC1CCCCC1)NC(=O)[C@H](C)NC(=O)[C@H](CCCCN)NC(=O)[C@@H](N)Cc1ccccc1)C(=O)O` [Example 390, H-Phenylalanyl-Lysyl-Alanyl-{(2S)-2-Amino-3-cyclohexylpropanoyl}-{(2S)-2-Amino-3-cyclohexylpropanoyl}-Leucyl-DNorleucyl-OH] (H-FKA[Cha][Cha]L[dNle]-OH), the figure is 4000 nM; as for `CC(C)(C)CC(N)C(=O)N[C@@H](CCCCN)C(=O)N1CCC[C@H]1C(=O)N[C@H](CC1CCCCC1)C(=O)N[C@@H](CC1CCCCC1)C(=O)N[C@H](CCCNC(=N)N)C(=O)O` (mixture of isomers) [Example 6, H-{(R/S)-t-Butylalanyl}-Lysyl-Prolyl-{(2R)-2-Amino-3-cyclohexylproanoyl}-{(2S)-2-Amino-3-cyclohexylpropanoyl}-DArginyl-OH], 80 nM; as for `CN[C@@H](Cc1ccccc1)C(=O)N[C@@H](CCCCN)C(=O)N1CCC[C@H]1C(=O)N[C@H](CC1CCCCC1)C(=O)N[C@@H](CC1CCCCC1)C(=O)N[C@H](CCCNC(=N)N)C(=O)O` [Example 166, (N-Methyl)Phenylalanyl-Lysyl-Prolyl-{(2R)-2-Amino-3-cyclohexylpropanoyl}-{(2S)-2-Amino-3-cyclohexylpropanoyl}-DArginyl-OH] (H-[NMeF]KP[dCha][Cha][dR]-OH), 35 nM. With `CN[C@@H](Cc1ccccc1)C(=O)N[C@@H](CCCCN)C(=O)N[C@@H](CCC(=O)O)C(=O)N[C@H](CC1CCCCC1)C(=O)N[C@@H](Cc1ccccc1)C(=O)N[C@H](CCCNC(=N)N)C(=O)O` [Example 40, (N-Methyl)Phenylalanyl-Lysyl-Glutamyl-{(2R)-2-Amino-3-cyclohexylpropanoyl}-Phenylalanyl-DArginyl-OH] (H-[NMeF]KE[dCha]F[dR]-OH), the Ki worked out at 100 nM. On to `CN[C@@H](Cc1ccccc1)C(=O)N[C@@H](CCCCN)C(=O)N1CCC[C@H]1C(=O)N[C@H](CC1CCCCC1)C(=O)N[C@@H](Cc1ccccc1)C(=O)N[C@H](CCCNC(=N)N)C(=O)O` [Example 128, (N-Methyl) Phenylalanyl-Lysyl-Prolyl-{(2R)-2-Amino-3-cyclohexylpropanoyl}-Phenylalanyl-DArginyl-OH] (H-[NMeF]KP[dCha]F[dR]-OH), for which the inhibition constant (Ki) came to 39 nM. Take `CC(C)C[C@H](NC(=O)[C@H](CC1CCCCC1)NC(=O)[C@H](CC1CCCCC1)NC(=O)[C@H](C)NC(=O)[C@H](CCCCN)NC(=O)[C@@H](N)Cc1ccccc1)C(=O)N[C@H](CCCNC(=N)N)C(=O)O` [Example 214, H-Phenylalanyl-Lysyl-Alanyl-{(2S)-2-Amino-3-cyclohexylpropanoyl}-{(2S)-2-Amino-3-cyclohexylpropanoyl}-Leucyl-DArg] (H-FKA[Cha][Cha]L[dR]-OH): the Ki was determined as 90 nM.

Consider `N=C(N)NCCC[C@@H](NC(=O)[C@H](CC1CCCCC1)NC(=O)[C@@H](CC1CCCCC1)NC(=O)[C@H](CCCCN)NC(=O)[C@H](CCCCN)NC(=O)[C@@H](N)Cc1ccccc1)C(=O)O` [Example 58, H-Phenylalanyl-Lysyl-Lysyl-{(2R)-2-Amino-3-cyclohexylpropanoyl}-{(2S)-2-Amino-3-cyclohexylpropanoyl}-DArginyl-OH] (H-FKK[dCha][Cha][dR]-OH), for which the inhibition constant Ki was determined as 11 nM.

For the compound `C[C@H](NC(=O)[C@H](CCCCN)NC(=O)[C@@H](N)Cc1ccccc1)C(=O)N[C@H](CC1CCCCC1)C(=O)N[C@@H](CC1CCCCC1)C(=O)N[C@H](CCCNC(=N)N)C(=O)O` [Example 370, H-Phenylalanyl-Lysyl-Alanyl-{(2R)-2-Amino-3-cyclohexylpropanoyl}-{(2S)-2-Amino-3-cyclohexylpropanoyl}-DArginyl-OH] (H-FKA[dCha][Cha][dR]-OH), the inhibition constant Ki was 85 nM. On to `CCCC[C@H](NC(=O)[C@H](Cc1ccccc1)NC)C(=O)N1CCC[C@H]1C(=O)N[C@H](CC1CCCCC1)C(=O)N[C@@H](CC1CCCCC1)C(=O)N[C@H](CCCNC(=N)N)C(=O)O` [Example 187, (N-Methyl)Phenylalanyl-Norleucyl-Prolyl-{(2R)-2-Amino-3-cyclohexylpropanoyl}-{(2S)-2-Amino-3-cyclohexylpropanoyl}-DArginyl-OH] (H-[NMeF][Nle]P[dCha][Cha][dR]-OH), for which the inhibitory constant (Ki) came to 300 nM. As for `CN[C@@H](Cc1ccccc1)C(=O)N[C@@H](CCCCN)C(=O)N[C@@H](C)C(=O)N[C@H](CC1CCCCC1)C(=O)N[C@@H](CC1CCCCC1)C(=O)N[C@H](CCCNC(=N)N)C(=O)O` [Example 152, (N-Methyl)Phenylalanyl-Lysyl-Alanyl-{(2R)-2-Amino-3-cyclohexylpropanoyl}-{(2S)-2-Amino-3-cyclohexylpropanoyl}-DArginyl-OH] (H-[NMeF]KA[dCha][Cha][dR]-OH), the figure is 83 nM; as for `CC(C)C[C@H](NC(=O)[C@H](CC1CCCCC1)NC(=O)[C@H](CC1CCCCC1)NC(=O)[C@H](CCCCN)NC(=O)[C@@H](N)Cc1ccc(I)cc1)C(=O)N[C@H](C)C(=O)N[C@@H](CCCNC(=N)N)C(=O)O` [Example 107, H-(p-Iodo)Phenylalanyl-Lysyl-{(2S)-2-Amino-3-cyclohexylpropanoyl}-{(2S)-2-Amino-3-cyclohexylpropanoyl}-Leucyl-DAlanyl-Arginyl-OH] (H-[Phe(4-I)]K[Cha][Cha]L[dA]R-OH), 3600 nM. The result for `CC(=O)N[C@@H](Cc1ccccc1)C(=O)N[C@@H](CCCCN)C(=O)N[C@@H](C)C(=O)N[C@H](CC1CCCCC1)C(=O)N[C@@H](CC1CCCCC1)C(=O)N[C@H](CCCNC(=N)N)C(=O)O` [Example 120, N-Acetyl-Phenylalanyl-Lysyl-Alanyl-{(2R)-2-Amino-3-cyclohexylpropanoyl}-{(2S)-2-Amino-3-cyclohexylpropanoyl}-DArginyl-OH] (Ac-FKA[dCha][Cha][dR]-OH) reads 110 nM; that for `CN[C@@H](Cc1ccccc1)C(=O)N[C@@H](CCCCN)C(=O)N1CCC[C@H]1C(=O)N[C@H](CC1CCCCC1)C(=O)N[C@@H](Cc1ccccc1)C(=O)N[C@H](Cc1ccccc1)C(=O)O` [Example 212, (N-Methyl)Phenylalanyl-Lysyl-Prolyl-{(2R)-2-Amino-3-cyclohexylpropanoyl}-Phenylalanyl-DPhenylalanyl-OH] (H-[NMeF]KP[dCha]F[dF]-OH), 110 nM.

Regarding `CN[C@@H](Cc1ccccc1)C(=O)N[C@@H](CCCCNC(=O)C(F)(F)F)C(=O)N1CCC[C@H]1C(=O)N[C@H](CC1CCCCC1)C(=O)N[C@@H](CC1CCCCC1)C(=O)N[C@H](CCCNC(=N)N)C(=O)O` [Example 305, (N-Methyl)Phenylalanyl-Lysyl(N-epsilon-trifluoroacetyl)-Prolyl-{(2R)-2-Amino-3-cyclohexylpropanoyl}-{(2S)-2-Amino-3-cyclohexylpropanoyl}-DArginyl-OH] (H-[NMeF]K(Tfa)P[dCha][Cha][dR]-OH), the Ki amounted to 220 nM.
